Experimental data taken from patent publication US9839618B2, “Compositions and methods relating to proliferative diseases” (The Penn State Research Foundation, priority 2010, dated 2017).
Entries after “also recorded” stand apart in the source; their conditions may differ.

Assays:
[1] = tested on: Fibrosarcoma (HT-1080) cancer cell line; assay: MTS assay viability IC50, HT-1080; type: cell-based; details: Homo sapiens, Table 5, read-out: IC50 Fibro Sarcoma (HT-1080)
Protocol: (§1) Dehydroabietylamine, its N-substituted derivatives and the corresponding dihydroabietylamine and its N-substituted derivatives are tested for their capability to inhibit cell growth of cancer cell lines, including melanoma (UACC 903, 1205Lu), breast (MCF-7), fibrosarcoma (HT-1080), colon (Caco-2), and prostate (PC-3) cancer cell lines. Viability and IC50 of normal human fibroblasts and cell lines from melanoma and other malignancies following treatment with all the agents are measured using the MTS assay (Promega, Madison, Wis.). Human fibroblast FF2441 cells, metastatic melanoma cell lines 1205 Lu and UACC 903 as well as cancer cell lines representing sarcoma (HT-1080), prostate (PC-3, LNCaP), breast (MCF-7) and lung (A-549) are maintained in DMEM (Invitrogen, Carlsbad, Calif.) supplemented with 10% FBS (Hyclone, Logan, Utah) in a 5% CO2 atmosphere, humidified 37° C. incubator. 5×10^3 cells per well in 100 μL of media are plated and grown in a 96-well plate for 48 to 72 h and treated with either DMSO vehicle control or 0.62 to 40 μmol/L for 24, 48 or 72 h. IC50 values for each compound in […] for respective cell lines are measured from three independent experiments using GraphPad Prism version 4.01 (GraphPad Software, La Jolla, Calif.). FIG. 52 is a graph showing IC50 values for leelamine and compounds 4a, 4b and 5a in treated fibroblasts (FF2441) compared to melanoma cells. Selectivity ratio here is defined as ratio of activity against fibroblasts compared to activity against melanoma cells. Leelamine is relatively selective with a ratio of >6 and >4 for UACC903 and 1205Lu melanoma cells. The selectivity ratio of compound 4a is ˜4 and ˜3 for UACC903 and 1205Lu and for compound 4b is ˜4 for both cell lines. The selectivity ratio of compound 5a is ˜4 for UACC903 and >2 for 1205Lu cells.

STAT signaling pathway = assay: Western blot, STAT pathway; type: cell-based, human; details: for STAT3 pathway (pSTAT3): Example 8, 24 hours, actives 3-5 μmol/L, inactives 30-50 μmol/L
Protocol: (§2) For Western blot analysis, cell lysates are harvested by addition of RIPA lysis buffers containing 25 mM Tris.HCl pH 7.6, 150 mM NaCl, 1% NP-40, 1% sodium deoxycholate, 0.1% SDS, 10 mM EDTA, 1 mM sodium orthovanadate, 0.1 mM sodium molybdate, 1 mM phenylmethylsulfonyl fluoride, 20 μg/mL aprotinin, and 5 μg/mL leupeptin. The cell lysates are harvested and processed as described in Madhunapantula, S. V. et al., Cancer Res, 2007, 67:3626-36. Treatment conditions: 1-1.5×10^6 melanoma cells are plated in 100 mm culture dishes, 48 h later, treated with leelamine (3-6 μmol/L) for 3 to 24 hours. Protein lysates are collected for Western blotting. The blots are probed with antibodies according to each supplier's recommendations: antibodies to total Akt, phospho-Akt (Ser473), total PRAS40, phospho-PRAS40 (Thr246), total CREB, phospho-CREB (Ser133), phospho-p70 S6 kinase (Thr389), total Erk1/2, phospho-Erk1/2 (Thr202/Tyr 204), total CDK2, phospho-CDK2 (Thr160), phospho-Rb (Ser807/811), total Stat, phospho-Stat1 (Tyr701), Phospho-Stat-2(Tyr690), Phospho-Stat3(Ser727), phospho-Stat3(Tyr705) and cleaved PARP from Cell Signaling Technology (Danvers, Mass.); total PRAS40 from Invitrogen (Carlsbad, Calif.); cyclin D1, Bcl-2, α-enolase and secondary antibodies conjugated with horseradish peroxidase from Santa Cruz Biotechnology (Santa Cruz, Calif.). Immunoblots are developed using the enhanced chemiluminescence (ECL) detection system (Thermo Fisher Scientific, Rockford, Ill.). Intensity of protein bands is quantified using ImageJ software.
(§3) For Western blot analysis, 1×10^6 melanoma cells are plated in 100 mm culture dishes, 48 hours later, treated with empty liposomes or Nanolipolee-007 (3-6 μmol/L) for 3 to 24 hours. Protein lysates collected for Western blotting. The cell lysates are harvested in an RIPA lysis buffer containing protease and phosphatases inhibitors (Pierce Biotechnology, Rockford, Ill.). Blots are probed with antibodies according to each supplier's recommendations: antibodies to total Akt, phospho-Akt (Ser473), total PRAS40, phospho-PRAS40 (Thr246), total Bad, pBad (Ser 112) total Erk1/2, phospho-Erk1/2 (Thr202/Tyr 204), total CDK2, phospho-CDK2 (Thr160), phospho-Rb (Ser807/811), total Stat, phospho-Stat3 (Tyr705), caspase-3 and cleaved PARP from Cell Signaling Technology (Danvers, Mass.); total PRAS40 from Invitrogen (Carlsbad, Calif.); cyclin D1, α-enolase and secondary antibodies conjugated with horseradish peroxidase from Santa Cruz Biotechnology (Santa Cruz, Calif.). Immunoblots are developed using the enhanced chemiluminescence (ECL) detection system (Thermo Fisher Scientific, Rockford, Ill.). Intensity of protein bands is quantified using ImageJ software.
(§4) Cell lysates are harvested by addition of RIPA lysis buffers containing 25 mM Tris*HCl pH 7.6, 150 mM NaCl, 1% NP-40, 1% sodium deoxycholate, 0.1% SDS, 10 mM EDTA, 1 mM sodium orthovanadate, 0.1 mM sodium molybdate, 1 mM phenylmethylsulfonyl fluoride, 20 μg/mL aprotinin, and 5 μg/mL leupeptin. The cell lysates are harvested and processed as described. […] Protein lysates collected for Western blotting. […] Intensity of protein bands is quantified using ImageJ software. […]

[2] = tested on: PI3K/Akt signaling pathway; assay: Western blot, PI3K/Akt pathway; type: cell-based, human; details: for PI3K/AKT pathway (pAKT, pPRAS40, cyclin D1): Example 8, 24 hours, actives 3-5 μmol/L, inactives 30-50 μmol/L
Protocol: as §2, §3, §4

cancer cell line = assay: MTS assay viability IC50, A-459; type: cell-based; details: A459; Table 5; read-out: IC50 Liver (A-459)
Protocol: as §1

MAPK signaling pathway = assay: Western blot, MAPK pathway; type: cell-based, human; details: for MAPK pathway (pERK1/2, pCDK2): Example 8, 24 hours, actives 3-5 μmol/L, inactives 30-50 μmol/L
Protocol: as §2, §3, §4

[3] = 3 to 6 μmol/L for 3 to 24 hours, UACC 903 and 1205 Lu

Row | SMILES | IC50 [1] [µM] | STAT3 pathway (pSTAT3) (STAT signaling pathway) | PI3K/AKT pathway (pAKT, pPRAS40, cyclin D1) [2] | IC50 (cancer cell line) [µM] | MAPK pathway (pERK1/2, pCDK2) (MAPK signaling pathway) | STAT pathway signaling (STAT signaling pathway; [3]) | PI3 kinase pathway signaling [2, 3] | MAP kinase pathway signaling (MAPK signaling pathway; [3])
1 | CC(C)c1ccc2c(c1)CCC1[C@](C)(CNC(=O)C(F)(F)F)CCC[C@]21C (stereo partly drawn) [Compound 5a, N-{[(1R,4aS)-1,4a-dimethyl-7-(propan-2-yl)-1,2,3,4,4a,9,10,10a-octahydrophenanthren-1-yl]methyl}-2,2,2-trifluoroacetamide] | 3.73 ± 0.54 | decrease pSTAT3 expression at all doses | decrease pAKT, pPRAS40 and cyclin D1 | 9.7 ± 1.34 | Dose dependent reduction of pERK1/2 and pCDK2 | – | – | –
2 | CC(C)c1ccc2c(c1)CCC1[C@](C)(CN)CCC[C@]21C (stereo partly drawn) [Leelamine, [(1R,4aS)-1,4a-dimethyl-7-(propan-2-yl)-1,2,3,4,4a,9,10,10a-octahydrophenanthren-1-yl]methanamine] | 3.75 ± 0.54 | completely blocked pSTAT3 expression; also recorded: decrease pSTAT3 expression at all doses | highly effective in abolishing activation of AKT pathway; also recorded: decrease pAKT, pPRAS40 and cyclin D1 | 9.27 ± 1.43 | blocks activation of ERK1/2; also recorded: Dose dependent reduction of pERK1/2 and pCDK2 | decrease activity | decrease activity | decrease activity
3 | CC(C)C1=CC2=CCC3[C@](C)(CN)CCC[C@]3(C)C2CC1 (stereo partly drawn) [Compound 4a, {[(1R,4aR)-1,4a-dimethyl-7-(propan-2-yl)-1,2,3,4,4a,4b,5,6,10,10a-decahydrophenanthren-1-yl]methyl}amine] | 6.29 ± 1.1 | decrease pSTAT3 expression at all doses | decrease pAKT, pPRAS40 and cyclin D1 | 19.1 ± 3.87 | Dose dependent reduction of pERK1/2 and pCDK2 | – | – | –
4 | CC(C)C1=CC2=CCC3[C@](C)(CCC[C@@]3(C)C(=O)O)C2CC1 (stereo partly drawn) [Abietic acid, (1R,4aR)-1,4a-dimethyl-7-(propan-2-yl)-1,2,3,4,4a,4b,5,6,10,10a-decahydrophenanthrene-1-carboxylic acid, reference compound] | > 100 | unable to affect | unable to affect | > 100 | unable to affect | – | – | –
